The values that follow come from US20050234073A1, “Methods of inhibiting inflammation” (priority 2003, published 2005).

The test system of test [1] is moDCs. As to the kind of experiment: Human moDC presentation of α-galcer to DN32 iNKT cells (IL-2 ELISA). Particulars: moDCs differentiated in presence of inhibitor. In kind it is cell-based. The procedure: FIG. 20G is a line graph showing IL-2 production in human moDCs differentiated in the presence of BMS212122 (◯) or vehicle (●) were incubated with α-galcer. IL-2 concentrations were measured by ELISA of 24 hour culture supernatants. *, p<0.05; **, p<0.01.
(§1) APCs were incubated with 100 ng/mL α-galcer (kindly provided by Dr. H. Ploegh) for 3 hours, washed three times in PBS and aliquoted into a 96 well plate at 10^6 cells/mL. DN32 cells were added at 1:1 E:T ratio unless otherwise indicated. CD4^+ cells were isolated from spleens of OT-II transgenic mice using positive selection on CD4 magnetic beads (Miltenyi Biotec) and incubated with APCs and 100 μg/mL ovalbumin. The 24.8 NKT cell line was incubated with APCs in the absence of added antigen at E:T=2:1 unless otherwise indicated. Mouse IL-2 production was assessed by ELISA (OptEIA, BD PharMingen) of 24 or 40 hour culture supernatants. […]
Bone marrow was extracted from the femurs of C57BL6 or MTPmx1cre mice, washed once in PBS and resuspended in R10 supplemented with culture supernatant from murine GM-CSF transfected cells for a final concentration of 200 U/mL GM-CSF. […] Differentiated cells were harvested by gentle pipetting, washed in PBS, and analyzed by flow cytometry for surface expression of CD11c and I-A^b. […] After 5 days cells were dislodged by gentle pipetting, analyzed by flow cytometry and assayed for antigen presentation. […]
Background: An ELISA detects its analyte on a solid surface through an enzyme-linked reagent.

Another test relates to MODE-K cells. As to the kind of experiment: MODE-K cell presentation of α-galcer to DN32 cells (IL-2 ELISA). Conditions: MODE-K cells incubated with inhibitor (10 uM). The class given is cell-based, mouse. The procedure: FIG. 17A is a bar chart showing IL-2 production of MODE-K cells cultured in the presence of BMS212122 (MTPi) or vehicle were incubated with α-galcer for 3 hours, washed, and co cultured with DN32 cells. IL-2 concentrations were measured by ELISA of 24 hour culture supernatants.
as §1, with “supernatants. APCs were treated with BMS212122 (10 uM dissolved in DMSO; kindly provided by Bristol Myers Squibb, New Jersey) as indicated and washed prior to addition of T or NKT cells.” for “supernatants.”
The relationship between MTP and CD1d in large intestinal epithelial cells (IECs) was determined. […]

The target of a further test is MTP (Homo sapiens, UniProt P55157). Particulars: cited from earlier work.
Test [2] relates to moDCs. As to the kind of experiment: Flow cytometry of surface CD1d and MHC class I on human monocyte-derived DCs. In kind it is cell-based. Particulars: moDCs after 5 days in presence of inhibitor. The text has this: FIG. 20F is a series of flow cytometric analysis showing surface staining of human monocyte-derived DCs were stained with 42.1 (CD1d), anti-HLA-A,B,C (MHC class I), or isotype control antibodies (dashed lines) after 4 days of differentiation in the presence of BMS212122 (gray lines) or vehicle control (black lines).
Bone marrow was extracted from the femurs of C57BL6 or MTPmx1cre mice, washed once in PBS and resuspended in R10 supplemented with culture supernatant from murine GM-CSF transfected cells for a final concentration of 200 U/mL GM-CSF. BMDCs were then cultured in bacteriological plates for 12-14 days as described. Differentiated cells were harvested by gentle pipetting, washed in PBS, and analyzed by flow cytometry for surface expression of CD11c and I-A^b. […] After 5 days cells were dislodged by gentle pipetting, analyzed by flow cytometry and assayed for antigen presentation.
Mouse cells were stained using the following antibodies: FITC-conjugated α-CD1d (1B1, PharMingen); PE-conjugated α-CD11c (HL3, PharMingen); FITC-conjugated α-1-A^d (AMS-32.1, PharMingen); PE-conjugated α-CD69 (H1.2F3, PharMingen); PE-conjugated α-B220 (RA3-6B2, PharMingen). […] Staining was performed in the presence of Via-Probe (PharMingen) and analyzed with a FACSort flow cytometer (Becton Dickinson). […]
(In flow cytometry, cells or beads pass a laser one at a time.)

Sequence of MTP (P55157 19-894, species assumed): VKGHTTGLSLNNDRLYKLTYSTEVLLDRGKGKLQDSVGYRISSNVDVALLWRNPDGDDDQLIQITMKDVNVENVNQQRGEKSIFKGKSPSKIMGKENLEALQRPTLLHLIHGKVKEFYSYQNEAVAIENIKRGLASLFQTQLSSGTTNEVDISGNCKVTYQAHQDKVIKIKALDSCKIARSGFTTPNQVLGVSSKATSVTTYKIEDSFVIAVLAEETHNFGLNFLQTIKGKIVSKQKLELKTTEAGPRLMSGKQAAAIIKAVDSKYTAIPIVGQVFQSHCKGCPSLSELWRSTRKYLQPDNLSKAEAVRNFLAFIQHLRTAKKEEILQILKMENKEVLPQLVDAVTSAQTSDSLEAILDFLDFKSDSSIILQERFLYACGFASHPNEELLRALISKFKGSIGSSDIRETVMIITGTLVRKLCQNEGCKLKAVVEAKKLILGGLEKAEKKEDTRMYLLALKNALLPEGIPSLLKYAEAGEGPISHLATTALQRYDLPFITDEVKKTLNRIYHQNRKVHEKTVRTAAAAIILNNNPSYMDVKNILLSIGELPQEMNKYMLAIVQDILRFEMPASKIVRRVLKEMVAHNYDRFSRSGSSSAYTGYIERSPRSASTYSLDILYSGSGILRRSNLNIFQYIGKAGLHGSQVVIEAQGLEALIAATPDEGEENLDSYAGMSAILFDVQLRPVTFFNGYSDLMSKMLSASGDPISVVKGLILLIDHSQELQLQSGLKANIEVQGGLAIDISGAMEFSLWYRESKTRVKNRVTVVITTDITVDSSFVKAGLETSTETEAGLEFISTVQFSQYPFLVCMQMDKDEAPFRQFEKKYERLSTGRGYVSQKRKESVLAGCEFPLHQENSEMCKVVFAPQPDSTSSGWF
Sequence of MTP (P07237 18-508 partner, species assumed): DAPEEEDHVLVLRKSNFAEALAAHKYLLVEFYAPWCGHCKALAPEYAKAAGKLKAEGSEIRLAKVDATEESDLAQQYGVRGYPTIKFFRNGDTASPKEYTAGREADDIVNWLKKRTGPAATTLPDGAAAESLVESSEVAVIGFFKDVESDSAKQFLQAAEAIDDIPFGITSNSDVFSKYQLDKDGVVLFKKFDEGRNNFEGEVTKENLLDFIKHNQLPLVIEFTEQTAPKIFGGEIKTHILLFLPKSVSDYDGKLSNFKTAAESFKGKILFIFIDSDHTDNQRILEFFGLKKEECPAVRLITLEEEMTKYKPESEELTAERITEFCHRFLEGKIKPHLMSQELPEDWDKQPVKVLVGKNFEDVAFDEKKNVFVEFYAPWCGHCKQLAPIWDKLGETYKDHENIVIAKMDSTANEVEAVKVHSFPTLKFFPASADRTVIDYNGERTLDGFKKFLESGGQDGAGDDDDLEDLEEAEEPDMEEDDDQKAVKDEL

As for `Cc1ccc2c(nc(C)n2CCCCC2(C(=O)NCC(F)(F)F)c3ccccc3-c3ccccc32)c1NC(=O)c1ccccc1-c1ccc(C(F)(F)F)cc1` [BMS212122, 9-[4-[2,5-Dimethyl-4-[[[4′-(trifluoromethyl)[1,1′-biphenyl]-2-yl]carbonyl]amino]-1H-benzimidazol-1-yl]butyl]-N-(2,2,2-trifluoroethyl)-9H-fluorene-9-carboxamide], the “capacity to present α-galcer to DN32 iNKT cells” value with moDCs [1] is reported as “reduced capacity”. The “presentation of α-galcer to DN32 cells” value with MODE-K cells is given as “decreased”. Moreover, on MTP, the “transfer of triglycerides, phospholipids, and cholesterol esters in vitro” value is “blocks transfer”. Further, in the test on moDCs [2] (vehicle 4.2, p<0.05), the “surface CD1d mean fluorescence intensity” value is given as 3.3. In addition, the “MHC class I mean fluorescence intensity” value with moDCs [2] (vehicle 70) is recorded as 76.
